Measured values from PubChem BioAssay (NCI).
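Values below derive from 48-hour exposures of cells grown in 96-well plates, with endpoints linearly interpolated between the two concentrations bracketing the appropriate inhibition level. TGI: total growth inhibition.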

Experiments:
Experiment in all cases: DTP human tumour cell line panel, 48 h
XF 498 CNS = system: XF 498 CNS
SF-268 CNS = system: SF-268 CNS
M19-MEL melanoma = system: M19-MEL melanoma
K-562 leukemia = system: K-562 leukemia
TK-10 renal = system: TK-10 renal
U251 CNS = system: U251 CNS
SF-539 CNS = system: SF-539 CNS
LOX IMVI melanoma = system: LOX IMVI melanoma
OVCAR-5 ovarian = system: OVCAR-5 ovarian
MALME-3M melanoma = system: MALME-3M melanoma
LXFL 529 NSCLC = system: LXFL 529 NSCLC
CAKI-1 renal = system: CAKI-1 renal
UACC-257 melanoma = system: UACC-257 melanoma
NCI-H460 lung = system: NCI-H460 lung
HL-60(TB) leukemia = system: HL-60(TB) leukemia
SK-MEL-28 melanoma = system: SK-MEL-28 melanoma
EKVX NSCLC = system: EKVX NSCLC
SR leukemia = system: SR leukemia
HCT-116 colon = system: HCT-116 colon
OVCAR-4 ovarian = system: OVCAR-4 ovarian
SNB-19 CNS = system: SNB-19 CNS
786-0 renal = system: 786-0 renal
SNB-78 CNS = system: SNB-78 CNS
MOLT-4 leukemia = system: MOLT-4 leukemia
KM12 colon = system: KM12 colon
RXF 393 renal = system: RXF 393 renal
SNB-75 CNS = system: SNB-75 CNS
HCT-15 colon = system: HCT-15 colon
NCI-H23 lung = system: NCI-H23 lung
UACC-62 melanoma = system: UACC-62 melanoma
A498 renal = system: A498 renal
ACHN renal = system: ACHN renal
SK-MEL-5 melanoma = system: SK-MEL-5 melanoma
HT29 colon = system: HT29 colon
DMS 273 small cell lung = system: DMS 273 small cell lung
A549 NSCLC = system: A549 NSCLC
NCI-H522 lung = system: NCI-H522 lung
CCRF-CEM leukemia = system: CCRF-CEM leukemia
OVCAR-8 ovarian = system: OVCAR-8 ovarian
OVCAR-3 ovarian = system: OVCAR-3 ovarian
M14 melanoma = system: M14 melanoma
SF-295 CNS = system: SF-295 CNS
UO-31 renal = system: UO-31 renal
KM20L2 colon = system: KM20L2 colon
HOP-62 NSCLC = system: HOP-62 NSCLC
NCI-H226 lung = system: NCI-H226 lung
DLD-1 colon = system: DLD-1 colon
SN12C renal = system: SN12C renal
SK-OV-3 ovarian = system: SK-OV-3 ovarian
COLO 205 colon = system: COLO 205 colon
HCC-2998 colon = system: HCC-2998 colon
DMS 114 small cell lung = system: DMS 114 small cell lung
RPMI-8226 leukemia = system: RPMI-8226 leukemia
SK-MEL-2 melanoma = system: SK-MEL-2 melanoma
SW-620 colon = system: SW-620 colon
IGROV1 ovarian = system: IGROV1 ovarian
HOP-92 NSCLC = system: HOP-92 NSCLC

## Cn1cc/c(=N\N=c2/ccn(C)c3ccccc23)c2ccccc21
XF 498 CNS
  TGI: 27.1 µM
SF-268 CNS
  TGI: 39.2 µM
M19-MEL melanoma
  TGI: 34.2 µM
K-562 leukemia
  TGI: 22.2 µM
TK-10 renal
  TGI: 36.4 µM
U251 CNS
  TGI: 29.1 µM
SF-539 CNS
  TGI: 29.4 µM
LOX IMVI melanoma
  TGI: 24.2 µM
OVCAR-5 ovarian
  TGI: 30.3 µM
MALME-3M melanoma
  TGI: 31 µM
LXFL 529 NSCLC
  TGI: 27.2 µM
CAKI-1 renal
  TGI: 33.2 µM
UACC-257 melanoma
  TGI: 27.3 µM
NCI-H460 lung
  TGI: 25 µM
HL-60(TB) leukemia
  TGI: 21.6 µM
SK-MEL-28 melanoma
  TGI: 28.5 µM
EKVX NSCLC
  TGI: 27.8 µM
SR leukemia
  TGI: 47.3 µM
HCT-116 colon
  TGI: 23.4 µM
OVCAR-4 ovarian
  TGI: 25.5 µM
SNB-19 CNS
  TGI: 36.3 µM
786-0 renal
  TGI: 30.1 µM
SNB-78 CNS
  TGI: 33.3 µM
MOLT-4 leukemia
  TGI: 63.9 µM
KM12 colon
  TGI: 25.6 µM
RXF 393 renal
  TGI: 27.5 µM
SNB-75 CNS
  TGI: 61.8 µM
HCT-15 colon
  TGI: 29.2 µM
NCI-H23 lung
  TGI: 27.4 µM
UACC-62 melanoma
  TGI: 29.8 µM
A498 renal
  TGI: 37.2 µM
ACHN renal
  TGI: 27 µM
SK-MEL-5 melanoma
  TGI: 29.4 µM
HT29 colon
  TGI: 31.7 µM
DMS 273 small cell lung
  TGI: 30 µM
A549 NSCLC
  TGI: 30.6 µM
NCI-H522 lung
  TGI: 27.8 µM
CCRF-CEM leukemia
  TGI: 24.5 µM
OVCAR-8 ovarian
  TGI: 28.5 µM
OVCAR-3 ovarian
  TGI: 24 µM
M14 melanoma
  TGI: 30.8 µM
SF-295 CNS
  TGI: 30.9 µM
UO-31 renal
  TGI: 26.3 µM
KM20L2 colon
  TGI: 28.2 µM
HOP-62 NSCLC
  TGI: 31.6 µM
NCI-H226 lung
  TGI: 25.8 µM
DLD-1 colon
  TGI: 29.4 µM
SN12C renal
  TGI: 33 µM
SK-OV-3 ovarian
  TGI: 31 µM
COLO 205 colon
  TGI: 22.1 µM
HCC-2998 colon
  TGI: 29.2 µM
DMS 114 small cell lung
  TGI: 27.7 µM

## COc1ccccc1/C=C1\C(=O)N(C(=O)c2ccc(NC(C)=O)cc2)N=C1C
XF 498 CNS
  TGI: > 100 µM
SF-268 CNS
  TGI: > 100 µM
M19-MEL melanoma
  TGI: > 100 µM
K-562 leukemia
  TGI: > 100 µM
RPMI-8226 leukemia
  TGI: > 100 µM
TK-10 renal
  TGI: > 100 µM
U251 CNS
  TGI: > 100 µM
SF-539 CNS
  TGI: > 100 µM
LOX IMVI melanoma
  TGI: > 100 µM
OVCAR-5 ovarian
  TGI: > 100 µM
MALME-3M melanoma
  TGI: > 100 µM
SK-MEL-2 melanoma
  TGI: > 100000 nM
CAKI-1 renal
  TGI: > 100 µM
UACC-257 melanoma
  TGI: > 100 µM
NCI-H460 lung
  TGI: > 100 µM
HL-60(TB) leukemia
  TGI: > 100 µM
SW-620 colon
  TGI: > 100000 nM
SK-MEL-28 melanoma
  TGI: > 100 µM
EKVX NSCLC
  TGI: > 100 µM
SR leukemia
  TGI: > 100 µM
HCT-116 colon
  TGI: > 100 µM
OVCAR-4 ovarian
  TGI: > 100 µM
SNB-19 CNS
  TGI: > 100 µM
786-0 renal
  TGI: > 100 µM
SNB-78 CNS
  TGI: > 100 µM
MOLT-4 leukemia
  TGI: > 100 µM
KM12 colon
  TGI: > 100 µM
SNB-75 CNS
  TGI: > 100 µM
HCT-15 colon
  TGI: > 100 µM
NCI-H23 lung
  TGI: > 100 µM
ACHN renal
  TGI: > 100 µM
SK-MEL-5 melanoma
  TGI: > 100 µM
HT29 colon
  TGI: > 100 µM
DMS 273 small cell lung
  TGI: > 100 µM
A549 NSCLC
  TGI: > 100 µM
NCI-H522 lung
  TGI: > 100 µM
CCRF-CEM leukemia
  TGI: > 100 µM
OVCAR-8 ovarian
  TGI: > 100 µM
OVCAR-3 ovarian
  TGI: > 100 µM
SF-295 CNS
  TGI: > 100 µM
UO-31 renal
  TGI: > 100 µM
HOP-62 NSCLC
  TGI: > 100 µM
NCI-H226 lung
  TGI: > 100 µM
DLD-1 colon
  TGI: > 100 µM
SN12C renal
  TGI: > 100 µM
COLO 205 colon
  TGI: > 100 µM
HCC-2998 colon
  TGI: > 100 µM
DMS 114 small cell lung
  TGI: > 100 µM

## CCN(CC)c1ccc2cc3ccc(=[N+](CC)CC)cc-3oc2c1
XF 498 CNS
  TGI: 7.99 µM
SF-268 CNS
  TGI: 2.75 µM
K-562 leukemia
  TGI: > 100 µM
RPMI-8226 leukemia
  TGI: 3.16 µM
TK-10 renal
  TGI: 17.2 µM
U251 CNS
  TGI: 2.02 µM
SF-539 CNS
  TGI: 5.12 µM
LOX IMVI melanoma
  TGI: 1.98 µM
OVCAR-5 ovarian
  TGI: 19.6 µM
MALME-3M melanoma
  TGI: 2.78 µM
SK-MEL-2 melanoma
  TGI: 2990 nM
LXFL 529 NSCLC
  TGI: 1.79 µM
CAKI-1 renal
  TGI: 18 µM
UACC-257 melanoma
  TGI: 10.4 µM
NCI-H460 lung
  TGI: 6.62 µM
HL-60(TB) leukemia
  TGI: 0.532 µM
SW-620 colon
  TGI: 1430 nM
SK-MEL-28 melanoma
  TGI: 10.3 µM
EKVX NSCLC
  TGI: 19.9 µM
SR leukemia
  TGI: 1.52 µM
HCT-116 colon
  TGI: 1.77 µM
OVCAR-4 ovarian
  TGI: 26.1 µM
SNB-19 CNS
  TGI: 23.3 µM
786-0 renal
  TGI: 7.73 µM
SNB-78 CNS
  TGI: 11.1 µM
MOLT-4 leukemia
  TGI: 2.09 µM
IGROV1 ovarian
  TGI: 8.36 µM
KM12 colon
  TGI: 1.92 µM
RXF 393 renal
  TGI: 11.6 µM
SNB-75 CNS
  TGI: 16.3 µM
HCT-15 colon
  TGI: 12.7 µM
NCI-H23 lung
  TGI: 3.04 µM
UACC-62 melanoma
  TGI: 9.36 µM
A498 renal
  TGI: 29.8 µM
ACHN renal
  TGI: 7.39 µM
SK-MEL-5 melanoma
  TGI: 7.76 µM
HT29 colon
  TGI: 4.48 µM
DMS 273 small cell lung
  TGI: 2.49 µM
A549 NSCLC
  TGI: 16.6 µM
NCI-H522 lung
  TGI: 5.7 µM
CCRF-CEM leukemia
  TGI: 6.33 µM
OVCAR-8 ovarian
  TGI: 1.84 µM
OVCAR-3 ovarian
  TGI: 2.11 µM
M14 melanoma
  TGI: 6.03 µM
SF-295 CNS
  TGI: 16.3 µM
UO-31 renal
  TGI: 8.52 µM
KM20L2 colon
  TGI: 12.1 µM
HOP-62 NSCLC
  TGI: 13.7 µM
NCI-H226 lung
  TGI: 15.4 µM
DLD-1 colon
  TGI: 14.5 µM
SN12C renal
  TGI: 2.33 µM
SK-OV-3 ovarian
  TGI: 13.6 µM
COLO 205 colon
  TGI: 2.05 µM
HOP-92 NSCLC
  TGI: 3.13 µM
HCC-2998 colon
  TGI: 19 µM
DMS 114 small cell lung
  TGI: 3.8 µM
